Experimental data reported in publication PMC7321108, “1-Hydroxyanthraquinones Containing Aryl Substituents as Potent and Selective Anticancer Agents” (Molecules, 2020).

Key:
T98G glioblastoma cells = assay: MTT cytotoxicity assay, T98G; assay type: cell-based; conditions: Homo sapiens, 72 h incubation, mean ± SEM of three experiments, read-out: Cytotoxicity (GI50) against T98G
How it was run: (§1)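 Seed cells, add test compounds dissolved in DMSO, and incubate 72 h at 37 °C in 5% CO2. Add 1% MTT for four hours, then DMSO for 15 min, and read absorbance at 450 nm. Derive GI50 from three independent experiments.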

[1] = test system: DU-145 prostate cancer cells; assay: MTT cytotoxicity assay, DU-145; assay type: cell-based, human; conditions: Homo sapiens, DU-145, 72 h, 72 h incubation, mean ± SEM of three experiments, read-out: Cytotoxicity (GI50) against DU-145
How it was run: as §1

SNB-19 cells [2] = assay: DNA synthesis investigation (BrdU/PI flow cytometry), SNB-19; assay type: cell-based, human; conditions: SNB-19, treated at GI50 concentration, 24 h, BrdU 30 min
Procedure: (§2) Cell cycle analysis was performed by Flow Cytometry using BrdU and PI staining [63]. For this experiment cells were seeded in 6-well plates (30,000 per plate) and incubate for adhesion for 24 h. […] For the next step the BrdU stock was added at a final concentration of 30 µM and cells were incubated for 30 min. Cells were washed with PBS, harvested using trypsine and resuspended at 0.3 mL of PBS. Permeabilization of cell membrane was performed as follows: 0.7 mL of ice-cold 100% EtOH was added into each sample, mixed gently and incubate at 4 °C for 1 h. Cells were pelleted and supernatant was removed completely. Then 0.5 mL of 2 N HCl/0.5% Triton X-100 was added and samples were incubated 30 min at room temperature. Cells were pelleted again, supernatant was removed. The pellet was resuspended in 0.5 mL of 0.1 M sodium tetraborate for 2 min and cells were pelleted again, washed with 150 µL of PBS/1% BSA and resuspended in 50 µM 0.5% Tween 20/1% BSA/PBS. […] After that the samples were resuspended in 0.5 mL of PBS containing 10 mg/mL RNAse A and 20 mg/mL PI. Samples were incubated at room temperature for 30 min and analyzed immediately or store at 4 °C. CytoFLEX flow cytometer (Beckman Coulter) was used for analysis. The results are presented as a percentage of cell population standing in DNA synthesis process.

[3] = test system: U-87MG glioblastoma cells; assay: MTT cytotoxicity assay, U-87MG; assay type: cell-based; conditions: Homo sapiens, 72 h incubation, mean ± SEM of three experiments, read-out: Cytotoxicity (GI50) against U-87MG
How it was run: as §1

SNB-19 cells [4] = assay: Cell cycle analysis by flow cytometry (Hoechst 33342), SNB-19; assay type: cell-based, human; conditions: SNB-19, treated at GI50 concentration, 24 h
Procedure: Due to the fact that the implementation of the antitumor potential of the currently existing antitumor agents is carried out by acting on various biological targets, at the next stage we performed the cell cycle analysis and DNA synthesis. Cell cycle analysis of 1-hydroxy-4-phenyl-9,10-anthraquinone 13, 1-hydroxy-4-(2,3-dimethoxyphenyl)-9,10- anthraquinone 16, 1-hydroxy-4-(furan-3-yl)-9,10-anthraquinone 23 and 1-hydroxy- 2-(2,3-dimethoxyphenyl)-9,10-anthraquinone 28 against SNB-19 cells for 24 h produced interesting results. After examining the data for compounds 13 and 16 (Table 3, Figure 4C,D), good number of cells are distributed in S phase, i.e., initiated DNA replication mechanism and also in G0/G1 phase, i.e., initial phase of cell cycle. G1 and G2 are the growth phases in cell cycle analysis, whereas S phase is a synthetic phase wherein DNA replication and DNA synthesis take place. The 2-aryl substituted compound 28 initiated the G0/G1 phase in analogy with doxorubicin and mitomycin. […] Further, compounds play a vital role in controlling the regulation of Sub-G1 and G2/M phases. Some difference in the mechanism of operation of 4-aryl substituted 13,16 and 2-aryl substituted 9,10-anthraquinones 28 has been observed during the progression of cell cycle like: S phase was highly disturbed by 13; G0/G1 phase was highly disturbed by 28. […] This observation can be explained by the influence on the cell repair systems that respond to the intercalation of compounds in DNA. […] Further, mitoxantrone promotes the arrest of S phase of cell cycle.
For cell cycle analysis cells were seeded in 6-well plates (30,000 per plate) and incubate for adhesion for 24 h. […] Cells were washed with PBS twice, harvested, pelleted and resuspended in 0.5 mL of PBS. For staining the Hoechst 33342 Ready Flow Reagent (Invitrogen) was used according to the instruction. CytoFLEX flow cytometer (Beckman Coulter) was used for analysis. The results are presented as a percentage of cell population standing in different stages of the cell cycle.

DU-145 cells = assay: DNA synthesis investigation (BrdU/PI flow cytometry), DU-145; assay type: cell-based, human; conditions: DU-145, treated at GI50 concentration, 24 h, BrdU 30 min
Procedure: as §2

[5] = test system: MT-4 cells of T-cellular human leucosis; assay: MTT cytotoxicity assay, MT-4; assay type: cell-based; conditions: MT4, 72 h incubation, mean ± SEM of three experiments, read-out: Cytotoxicity (GI50) against MT-4
How it was run: as §1

[6] = test system: SNB-19 glioblastoma cells; assay: MTT cytotoxicity assay, SNB-19; assay type: cell-based; conditions: Homo sapiens, 72 h incubation, mean ± SEM of three experiments, read-out: Cytotoxicity (GI50) against SNB-19
How it was run: as §1

[7] = test system: LNCAP prostate cancer cells; assay: MTT cytotoxicity assay, LNCAP; assay type: cell-based, human; conditions: Homo sapiens, LNCaP, 72 h, 72 h incubation, mean ± SEM of three experiments, read-out: Cytotoxicity (GI50) against LNCAP
How it was run: as §1

O=C1c2ccccc2C(=O)c2c(-c3ccccc3)ccc(O)c21 [Compound 13, 1-Hydroxy-4-phenylanthracene-9,10-dione]
GI50 (T98G glioblastoma cells): 14.1 ± 0.65 µM
GI50 [1]: 1.1 ± 0.19 µM
Population (% Cell Distribution) DNA Synthesis (SNB-19 cells [2]): 28.63%
GI50 [3]: > 100 µM
Population (% Cell Distribution) G0/G1 (SNB-19 cells [4]): 29.0%
Population (% Cell Distribution) G2/M (SNB-19 cells [4]): 13.9%
Population (% Cell Distribution) S (SNB-19 cells [4]): 48.5%
Population (% Cell Distribution) Sub-G1 (SNB-19 cells [4]): 4.0%
Population (% Cell Distribution) Super-G2 (SNB-19 cells [4]): 4.6%
Population (% Cell Distribution) DNA Synthesis (DU-145 cells): 6.83%
GI50 [5]: 71 ± 0.7 µM
GI50 [6]: 24.3 ± 1.08 µM
GI50 [7]: 24 ± 1.47 µM

COc1cccc(-c2ccc(O)c3c2C(=O)c2ccccc2C3=O)c1OC [Compound 16, 1-(2,3-Dimethoxyphenyl)-4-hydroxyanthracene-9,10-dione]
GI50 (T98G glioblastoma cells): 25.1 ± 1.04 µM
GI50 [1]: 5.4 ± 0.17 µM
Population (% Cell Distribution) DNA Synthesis (SNB-19 cells [2]): 28.67%
GI50 [3]: > 100 µM
Population (% Cell Distribution) G0/G1 (SNB-19 cells [4]): 36.6%
Population (% Cell Distribution) G2/M (SNB-19 cells [4]): 18.6%
Population (% Cell Distribution) S (SNB-19 cells [4]): 34.3%
Population (% Cell Distribution) Sub-G1 (SNB-19 cells [4]): 3.0%
Population (% Cell Distribution) Super-G2 (SNB-19 cells [4]): 7.6%
Population (% Cell Distribution) DNA Synthesis (DU-145 cells): 27.22%
GI50 [5]: > 100 µM
GI50 [6]: 9.7 ± 0.41 µM
GI50 [7]: > 100 µM
